{"source": "patent US8188082B2", "about": "“5,6,7,8-tetrahydro-imidazo[1,5-α]pyrazine derivatives” (Actelion Pharmaceuticals Ltd., priority 2006, dated 2012)", "key": {"human orexin-2 receptor": {"molecular_target": "T1, human orexin-2 receptor (Homo sapiens, UniProt O43614)", "T1 construct": "expressed in transfected cells; host or cells: CHO cells (G418 selection)", "T1 sequence (O43614 1-444)": "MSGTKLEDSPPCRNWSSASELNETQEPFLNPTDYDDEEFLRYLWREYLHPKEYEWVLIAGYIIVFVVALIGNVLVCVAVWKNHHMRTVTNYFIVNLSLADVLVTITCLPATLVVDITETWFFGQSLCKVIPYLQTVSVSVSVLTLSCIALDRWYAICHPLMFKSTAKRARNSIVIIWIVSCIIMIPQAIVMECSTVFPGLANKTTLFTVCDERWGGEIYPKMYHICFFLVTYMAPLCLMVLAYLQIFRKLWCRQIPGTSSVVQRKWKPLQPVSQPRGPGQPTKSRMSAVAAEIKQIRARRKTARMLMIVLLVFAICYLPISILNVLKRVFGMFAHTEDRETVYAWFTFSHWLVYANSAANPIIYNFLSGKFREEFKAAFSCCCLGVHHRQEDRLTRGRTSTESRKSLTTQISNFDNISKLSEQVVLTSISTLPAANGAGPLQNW", "assay": "Intracellular calcium measurements (FLIPR), orexin receptor antagonistic activity, OX2", "assay_type": "cell-based", "settings": "CHO cells expressing human orexin-2 receptor; 10 nM orexin-A as agonist", "procedure": "(§1) Intracellular Calcium Measurements:\n(§2) Chinese hamster ovary (CHO) cells expressing the human orexin-1 receptor and the human orexin-2 receptor, respectively, are grown in culture medium (Ham F-12 with L-Glutamine) containing 300 μg/ml G418, 100 U/ml penicillin, 100 μg/ml streptomycin and 10% inactivated fetal calf serum (FCS). The cells are seeded at 80,000 cells/well into 96-well black clear bottom sterile plates (Costar) which have been precoated with 1% gelatine in Hanks' Balanced Salt Solution (HBSS). All reagents are from Gibco BRL. The seeded plates are incubated overnight at 37° C. in 5% CO2.\n(§3) Human orexin-A as an agonist is prepared as 1 mM stock solution in MeOH:water (1:1), diluted in HBSS containing 0.1% bovine serum albumin (BSA) and 2 mM HEPES for use in the assay at a final concentration of 10 nM.\n(§4) Antagonists are prepared as 10 mM stock solution in DMSO, then diluted in 96-well plates, first in DMSO, then in HBSS containing 0.1% bovine serum albumin (BSA) and 2 mM HEPES.\n(§5) On the day of the assay, 100 μl of loading medium (HBSS containing 1% FCS, 2 mM HEPES, 5 mM probenecid (Sigma) and 3 μM of the fluorescent calcium indicator fluo-3 AM (1 mM stock solution in DMSO with 10% pluronic acid) (Molecular Probes) is added to each well.\n(§6) The 96-well plates are incubated for 60 min at 37° C. in 5% CO2. The loading solution is then aspirated and cells are washed 3 times with 200 μl HBSS containing 2.5 mM probenecid, 0.1% BSA, 2 mM HEPES. 100 μl of that same buffer is left in each well.\n(§7) Within the Fluorescent Imaging Plate Reader (FLIPR, Molecular Devices), antagonists are added to the plate in a volume of 50 μl, incubated for 20 min and finally 100 μl of agonist is added. Fluorescence is measured for each well at 1 second intervals, and the height of each fluorescence peak is compared to the height of the fluorescence peak induced by 10 nM orexin-A with buffer in place of antagonist. For each antagonist, IC50 value (the concentration of compound needed to inhibit 50% of the agonistic response) is determined."}, "human orexin-1 receptor": {"molecular_target": "T2, human orexin-1 receptor (Homo sapiens, UniProt O43613)", "T2 construct": "expressed in transfected cells; host or cells: CHO cells (G418 selection)", "T2 sequence (O43613 1-425)": "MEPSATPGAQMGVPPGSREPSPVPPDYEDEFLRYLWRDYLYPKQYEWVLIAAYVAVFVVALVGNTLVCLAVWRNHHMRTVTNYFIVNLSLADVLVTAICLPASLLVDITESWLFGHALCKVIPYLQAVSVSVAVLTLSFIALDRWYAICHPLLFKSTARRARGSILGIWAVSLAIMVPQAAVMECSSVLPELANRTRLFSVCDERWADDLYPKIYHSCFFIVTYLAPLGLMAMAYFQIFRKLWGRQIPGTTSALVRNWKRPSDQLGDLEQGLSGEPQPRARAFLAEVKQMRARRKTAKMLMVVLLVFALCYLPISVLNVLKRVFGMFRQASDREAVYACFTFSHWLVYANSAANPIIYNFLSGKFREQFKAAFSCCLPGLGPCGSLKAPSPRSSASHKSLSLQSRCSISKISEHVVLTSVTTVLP", "assay": "Intracellular calcium measurements (FLIPR), orexin receptor antagonistic activity, OX1", "assay_type": "cell-based", "settings": "CHO cells expressing human orexin-1 receptor; 10 nM orexin-A as agonist", "procedure": "as §1, §2, §3, §4, §5, §6, §7"}}, "data": [{"smiles": "CCc1nc(Cl)c2n1CCN([C@@H](C(=O)NC)c1ccccc1)[C@H]2COc1cccc(C(F)(F)F)c1", "note": "[53 (8R; 2′R), (R)-2′-[1-chloro-3-ethyl-(R)-8-(3-trifluoromethyl-phenoxymethyl)-5,6-dihydro-8H-imidazo[1,5-a]pyrazin-7-yl]-N-methyl-2′-phenyl-acetamide]", "values": [{"measurement": "IC50", "setting": "human orexin-2 receptor", "result": 2, "unit": "nM"}, {"measurement": "IC50", "setting": "human orexin-1 receptor", "result": 412, "unit": "nM"}]}, {"smiles": "CNC(=O)[C@@H](c1ccccc1)N1CCn2c(C)nc(Cl)c2C1CCc1ccc(C)c(C)c1", "note": "(mixture of isomers) [11 (8S; 2′R)/(8R; 2′R)]", "values": [{"measurement": "IC50", "setting": "human orexin-2 receptor", "result": 11, "unit": "nM"}, {"measurement": "IC50", "setting": "human orexin-1 receptor", "result": 36, "unit": "nM"}]}, {"smiles": "C=Cc1nc(CC)n2c1[C@H](CCc1ccc(C(F)(F)F)cc1)N([C@@H](C(=O)NC)c1ccccc1)CC2", "note": "[28 (8S; 2′R), (R)-2′-{3-ethyl-(S)-8-[2-(4-trifluoromethyl-phenyl)-ethyl]-1-vinyl-5,6-dihydro-8H-imidazo[1,5-a]pyrazin-7-yl}-N-methyl-2′-phenyl-acetamide]", "values": [{"measurement": "IC50", "setting": "human orexin-2 receptor", "result": 29, "unit": "nM"}, {"measurement": "IC50", "setting": "human orexin-1 receptor", "result": 176, "unit": "nM"}]}, {"smiles": "CNC(=O)[C@@H](c1ccccc1)N1CCn2c(C)nc(Cl)c2[C@H]1CCc1cc(F)c(C)c(F)c1", "note": "[10 (8R; 2′R), (R)-2′-{1-chloro-(R)-8-[2-(3,5-difluoro-4-methyl-phenyl)-ethyl]-3-methyl-5,6-dihydro-8H-imidazo[1,5-a]pyrazin-7-yl}-N-methyl-2′-phenyl-acetamide]", "values": [{"measurement": "IC50", "setting": "human orexin-2 receptor", "result": 14, "unit": "nM"}, {"measurement": "IC50", "setting": "human orexin-1 receptor", "result": 72, "unit": "nM"}]}, {"smiles": "CCc1nc(C(F)(F)F)c2n1CCN([C@@H](C(=O)NC)c1ccccc1)[C@H]2CCc1ccc(C(F)(F)F)cc1", "note": "[15 (8S; 2′R), (R)-2′-{3-ethyl-1-trifluoromethyl-(S)-8-[2-(4-trifluoromethyl-phenyl)-ethyl]-5,6-dihydro-8H-imidazo[1,5-a]pyrazin-7-yl}-N-methyl-2′-phenyl-acetamide]", "values": [{"measurement": "IC50", "setting": "human orexin-2 receptor", "result": 15, "unit": "nM"}, {"measurement": "IC50", "setting": "human orexin-1 receptor", "result": 807, "unit": "nM"}]}, {"smiles": "CNC(=O)[C@@H](c1ccccc1)N1CCn2c(C)nc(C3CC3)c2[C@@H]1CCc1ccc(C(F)(F)F)cc1", "note": "[46 (8S; 2′R), (R)-2′-{1-cyclopropyl-3-methyl-(S)-8-[2-(4-trifluoromethyl-phenyl)-ethyl]-5,6-dihydro-8H-imidazo[1,5-a]pyrazin-7-yl}-N-methyl-2′-phenyl-acetamide]", "values": [{"measurement": "IC50", "setting": "human orexin-2 receptor", "result": 21, "unit": "nM"}, {"measurement": "IC50", "setting": "human orexin-1 receptor", "result": 762, "unit": "nM"}]}, {"smiles": "CNC(=O)[C@@H](c1ccccc1)N1CCn2c(Cl)nc(Cl)c2C1CCc1ccc(C(F)(F)F)cc1", "note": "(mixture of isomers) [33 (8S; 2′R)/(8R; 2′R)]", "values": [{"measurement": "IC50", "setting": "human orexin-2 receptor", "result": 11, "unit": "nM"}, {"measurement": "IC50", "setting": "human orexin-1 receptor", "result": 279, "unit": "nM"}]}, {"smiles": "CCc1nc(Cl)c2n1CCN([C@@H](C(=O)NC)c1ccccc1)[C@H]2CCc1cc(F)c(OC)c(F)c1", "note": "[36 (8S; 2′R), (R)-2′-{1-chloro-(S)-8-[2-(3,5-difluoro-4-methoxy-phenyl)-ethyl]-3-ethyl-5,6-dihydro-8H-imidazo[1,5-a]pyrazin-7-yl}-N-methyl-2′-phenyl-acetamide]", "values": [{"measurement": "IC50", "setting": "human orexin-2 receptor", "result": 14, "unit": "nM"}, {"measurement": "IC50", "setting": "human orexin-1 receptor", "result": 17, "unit": "nM"}]}, {"smiles": "CNC(=O)[C@@H](c1ccccc1)N1CCn2c(C)nc(C#N)c2[C@@H]1CCc1ccc(C(F)(F)F)c(F)c1", "note": "[43 (8S; 2′R), (R)-2′-{1-cyano-(S)-8-[2-(3-fluoro-4-trifluoromethyl-phenyl)-ethyl]-3-methyl-5,6-dihydro-8H-imidazo[1,5-a]pyrazin-7-yl}-N-methyl-2′-phenyl-acetamide]", "values": [{"measurement": "IC50", "setting": "human orexin-2 receptor", "result": 14, "unit": "nM"}, {"measurement": "IC50", "setting": "human orexin-1 receptor", "result": 538, "unit": "nM"}]}, {"smiles": "CNC(=O)[C@@H](c1ccccc1)N1CCn2c(COC)nc(Cl)c2C1CCc1ccc(C(F)(F)F)cc1", "note": "(mixture of isomers) [16 (8S; 2′R)/(8R; 2′R)]", "values": [{"measurement": "IC50", "setting": "human orexin-2 receptor", "result": 33, "unit": "nM"}, {"measurement": "IC50", "setting": "human orexin-1 receptor", "result": 2060, "unit": "nM"}]}, {"smiles": "CCc1nc(OC)c2n1CCN([C@@H](C(=O)NC)c1ccccc1)[C@H]2CCc1ccc(C)c(C)c1", "note": "[27 (8S; 2′R), (R)-2′-{(S)-8-[2-(3,4-dimethyl-phenyl)-ethyl]-3-ethyl-1-methoxy-5,6-dihydro-8H-imidazo[1,5-a]pyrazin-7-yl}-N-methyl-2′-phenyl-acetamide]", "values": [{"measurement": "IC50", "setting": "human orexin-2 receptor", "result": 4, "unit": "nM"}, {"measurement": "IC50", "setting": "human orexin-1 receptor", "result": 5, "unit": "nM"}]}, {"smiles": "CNC(=O)[C@@H](c1ccccc1)N1CCn2c(C)nc(C)c2C1CCc1ccc(OC)cc1OC", "note": "(mixture of isomers) [25 (8S; 2′R)/(8R; 2′R)]", "values": [{"measurement": "IC50", "setting": "human orexin-2 receptor", "result": 115, "unit": "nM"}, {"measurement": "IC50", "setting": "human orexin-1 receptor", "result": "≥ 10000", "unit": "nM"}]}]}
